The assay concerns P388 leukemia ip, CD2F1 mice, survival T/C. In words: NCI In Vivo Anticancer Drug Screen. Data for tumor model P388 Leukemia (intraperitoneal) in CD2F1 (CDF1) mice. The conditions noted are these: endpoint: median survival time, higher = longer survival. The method in brief: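 Mice carrying the transplanted tumor received test compound or vehicle. Survival was recorded in each group, and the value is the treated-group measurement divided by that of the vehicle-treated control group.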

The mark [1] stands for this setting: dose: 25.0 mg/kg/injection, schedule: Q01DX009 (ip), vehicle: saline with Tween-80.
Where [2] appears, read: dose: 50.0 mg/kg/injection, schedule: Q01DX009 (ip), vehicle: saline with Tween-80.
Setting [3] is: dose: 50.0 mg/kg/injection, schedule: Q01DX005 (ip), vehicle: Klucel (hydroxypropylcellulose) (HPC).
The mark [4] stands for this setting: dose: 100.0 mg/kg/injection, schedule: Q01DX005 (ip), vehicle: Klucel (hydroxypropylcellulose) (HPC).
The mark [5] stands for this setting: dose: 50.0 mg/kg/injection, schedule: Q01DX005 (ip), vehicle: saline with Tween-80.
Setting [6] is: dose: 100.0 mg/kg/injection, schedule: Q01DX005 (ip), vehicle: saline with Tween-80.
[7] abbreviates: dose: 200.0 mg/kg/injection, schedule: Q01DX005 (ip), vehicle: saline with Tween-80.
Where [8] appears, read: dose: 100.0 mg/kg/injection, schedule: Q01DX009 (ip), vehicle: saline with Tween-80.

Several values for one entry are separate records, joined by “and”; a condition that tells them apart may be missing. Identical values can stand only once. Inconclusive results and toxic doses are left out.

Turning to `CCCCNc1ncnc2[nH]ncc12`, the T/C (dose: 12.5 mg/kg/injection, schedule: Q01DX009 (ip), vehicle: saline with Tween-80) was 100 % of control; the T/C (dose: 12.5 mg/kg/injection, schedule: Q04DX003 (ip), vehicle: saline with Tween-80) is 90 % of control; the T/C under setting [1] was 110 % of control; the T/C (dose: 25.0 mg/kg/injection, schedule: Q04DX003 (ip), vehicle: saline with Tween-80) was 95 % of control; the T/C under setting [2] was 105 % of control; the T/C (dose: 50.0 mg/kg/injection, schedule: Q04DX003 (ip), vehicle: saline with Tween-80) is 90 % of control.
As to `Nc1cc2oc(=O)[nH]c2cc1Cl`, the T/C is, setting by setting: under setting [3], 90 % of control; under setting [4], 92 % of control; (dose: 200.0 mg/kg/injection, schedule: Q01DX005 (ip), vehicle: Klucel (hydroxypropylcellulose) (HPC)) 103 % of control.
`COc1cccc(-c2nnc(-c3nc[nH]c3C)[nH]c2=O)c1`: the T/C by setting is: (dose: 100.0 mg/kg/injection, schedule: Q04DX002 (ip), vehicle: saline with Tween-80) 93 % of control; (dose: 200.0 mg/kg/injection, schedule: Q04DX002 (ip), vehicle: saline with Tween-80) 91 % of control; (dose: 400.0 mg/kg/injection, schedule: Q04DX002 (ip), vehicle: saline with Tween-80) 91 % of control.
Turning to `CN(C)CCCNc1cccc2c1C(=O)c1cccc(NCCCN(C)C)c1C2=O`, the T/C reads like this: (dose: 4.0 mg/kg/injection, schedule: Q01DX009 (ip), vehicle: acid diluted with saline) 105 % of control; (dose: 7.5 mg/kg/injection, schedule: Q01DX009 (ip), vehicle: saline) 101 % of control; (dose: 8.0 mg/kg/injection, schedule: Q01DX009 (ip), vehicle: acid diluted with saline) 105 % of control; (dose: 12.5 mg/kg/injection, schedule: Q01DX005 (ip), vehicle: water) 108 % of control; (dose: 12.5 mg/kg/injection, schedule: Q01DX009 (ip), vehicle: water) 100 % of control; (dose: 15.0 mg/kg/injection, schedule: Q01DX009 (ip), vehicle: saline) 108 % of control. The T/C was 104 % of control (dose: 16.0 mg/kg/injection, schedule: Q01DX009 (ip), vehicle: acid diluted with saline); 114 % of control (dose: 25.0 mg/kg/injection, schedule: Q01DX005 (ip), vehicle: water); 100 % of control (dose: 25.0 mg/kg/injection, schedule: Q01DX009 (ip), vehicle: water); 100 % of control (dose: 30.0 mg/kg/injection, schedule: Q01DX009 (ip), vehicle: saline); 104 % of control (dose: 32.0 mg/kg/injection, schedule: Q01DX009 (ip), vehicle: acid diluted with saline); 102 % of control (dose: 50.0 mg/kg/injection, schedule: Q01DX005 (ip), vehicle: water). The T/C (dose: 50.0 mg/kg/injection, schedule: Q01DX009 (ip), vehicle: water) is 100 % of control; the T/C (dose: 60.0 mg/kg/injection, schedule: Q01DX009 (ip), vehicle: saline) was 102 % of control; the T/C (dose: 64.0 mg/kg/injection, schedule: Q01DX009 (ip), vehicle: acid diluted with saline) was 102 % of control.
For `Cn1c(=O)oc2ccc(S(=O)(=O)Nc3ccc(Cl)cc3[N+](=O)[O-])cc21`, the T/C (dose: 50.0 mg/kg/injection, schedule: Q01DX005 (ip), vehicle: saline + Tween-80 + alcohol) is 94 % of control; the T/C (dose: 100.0 mg/kg/injection, schedule: Q01DX005 (ip), vehicle: saline + Tween-80 + alcohol) was 101 % of control; the T/C (dose: 200.0 mg/kg/injection, schedule: Q01DX005 (ip), vehicle: saline + Tween-80 + alcohol) is 102 % of control.
`Cc1ncc(C(N)=O)c2c1OC(C)(C)OC2`: the T/C by setting is: under setting [5], 100 % of control; under setting [6], 100 % of control; under setting [7], 99 % of control.
With `Cc1ccc2c(c1)C(=O)C(CN1CCOCC1)CCO2` (stereo not drawn), the T/C by setting is: (dose: 100.0 mg/kg/injection, schedule: Q04DX003 (ip), vehicle: saline) 100 % of control; (dose: 200.0 mg/kg/injection, schedule: Q04DX003 (ip), vehicle: saline) 102 % of control; (dose: 400.0 mg/kg/injection, schedule: Q04DX003 (ip), vehicle: saline) 96 % of control.
`C#CCOc1ccccc1C(=O)NNc1ccc([N+](=O)[O-])cc1[N+](=O)[O-]`: the T/C is 97 % of control under setting [2] and 87 % of control under setting [8].
On to `CCCOC(=O)CCCC1=NC2=CC=CC3=NC(C)=NC(=N1)N23`, for which the T/C reads like this: under setting [1], 107 % of control; under setting [2], 104 % of control; under setting [8], 104 % of control.
For `Nc1c(C(=O)NCCc2ccccc2)c2nc3c(C(=O)NCCc4ccccc4)ccc(Br)c3oc-2c(Br)c1=O`, the T/C is, setting by setting: under setting [5], 89 % of control; under setting [6], 94 % of control; under setting [7], 99 % of control.
With `Cc1ccc(C2=C(C#N)C(c3ccccc3)C(C#N)=C(N)O2)cc1` (stereo not drawn), the T/C runs as follows: under setting [3], 97 % of control; under setting [4], 95 % of control.
For the molecule `O=C1CC2(C(=O)N1CN1CCCCC1)c1ccccc1-c1ccccc12`, the T/C (dose: 50.0 mg/kg/injection, schedule: Q01DX009 (ip), vehicle: Klucel (hydroxypropylcellulose) (HPC)) was 104 % of control and 106 % of control; the T/C (dose: 100.0 mg/kg/injection, schedule: Q01DX009 (ip), vehicle: Klucel (hydroxypropylcellulose) (HPC)) was 102 % of control and 115 % of control; the T/C (dose: 200.0 mg/kg/injection, schedule: Q01DX009 (ip), vehicle: Klucel (hydroxypropylcellulose) (HPC)) is 156 % of control.
On to `CN1C(=O)NC(c2ccc(Cl)cc2)(c2ccc(Cl)cc2)C1=O`, for which the T/C is 105 % of control (dose: 5.0 mg/kg/injection, schedule: Q04DX003 (ip), vehicle: other); 104 % of control (dose: 10.0 mg/kg/injection, schedule: Q04DX003 (ip), vehicle: other); 107 % of control (dose: 20.0 mg/kg/injection, schedule: Q04DX003 (ip), vehicle: other); 101 % of control (dose: 25.0 mg/kg/injection, schedule: Q04DX003 (ip), vehicle: other); 118 % of control (dose: 40.0 mg/kg/injection, schedule: Q04DX003 (ip), vehicle: other); 119 % of control (dose: 50.0 mg/kg/injection, schedule: Q04DX003 (ip), vehicle: other).
In the case of `CCNC1=CC(=O)c2ncccc2C1=O`, the T/C is 99 % of control (dose: 3.13 mg/kg/injection, schedule: Q01DX009 (ip), vehicle: DMSO); 100 % of control (dose: 6.25 mg/kg/injection, schedule: Q01DX009 (ip), vehicle: DMSO); 99 % of control (dose: 12.5 mg/kg/injection, schedule: Q01DX009 (ip), vehicle: DMSO); 95 % of control (dose: 25.0 mg/kg/injection, schedule: Q01DX009 (ip), vehicle: DMSO).
Consider `CCCCN1CCC(CNc2ccnc3cc(Cl)ccc23)C1` (stereo not drawn), for which the T/C was 93 % of control (dose: 12.5 mg/kg/injection, schedule: Q01DX005 (ip), vehicle: saline with Tween-80); 90 % of control (dose: 25.0 mg/kg/injection, schedule: Q01DX005 (ip), vehicle: saline with Tween-80); 109 % of control and 93 % of control under setting [5].
For the molecule `CSc1nc(N)c(NS(=O)(=O)c2ccc([N+](=O)[O-])cc2)c(=O)[nH]1`, the T/C is, setting by setting: (dose: 15.0 mg/kg/injection, schedule: Q01DX005 (ip), vehicle: Klucel (hydroxypropylcellulose) (HPC)) 99 % of control; (dose: 30.0 mg/kg/injection, schedule: Q01DX005 (ip), vehicle: Klucel (hydroxypropylcellulose) (HPC)) 87 % of control; (dose: 60.0 mg/kg/injection, schedule: Q01DX005 (ip), vehicle: Klucel (hydroxypropylcellulose) (HPC)) 91 % of control and 93 % of control.
Regarding `Cc1sc2ccccc2c(=O)c1CO`, the T/C by setting is: (dose: 60.0 mg/kg/injection, schedule: Q01DX005 (ip), vehicle: saline with Tween-80) 97 % of control; (dose: 120.0 mg/kg/injection, schedule: Q01DX005 (ip), vehicle: saline with Tween-80) 97 % of control; (dose: 240.0 mg/kg/injection, schedule: Q01DX005 (ip), vehicle: saline with Tween-80) 97 % of control.
As for `C[N+]1=C(c2ccc(Br)cc2)OCC1(C)C`, the T/C is 104 % of control (dose: 25.0 mg/kg/injection, schedule: Q01DX009 (ip), vehicle: other); 101 % of control (dose: 50.0 mg/kg/injection, schedule: Q01DX009 (ip), vehicle: other); 97 % of control (dose: 100.0 mg/kg/injection, schedule: Q01DX009 (ip), vehicle: other); 101 % of control (dose: 200.0 mg/kg/injection, schedule: Q01DX009 (ip), vehicle: other); 101 % of control (dose: 400.0 mg/kg/injection, schedule: Q01DX009 (ip), vehicle: other).

Values taken from PubChem BioAssay AID330 (DTP/NCI, 2004).
